Like-named read-outs stand apart in the source and are kept apart here.
Assays:
[1] = solubility in plastic and solvents; type: physicochemical; settings: molten flexible PVC
[2] = cited from earlier work
[3] = cited from earlier work; remark: listed apart in the source
rats = rats gnawing on denatonium benzoate-treated flexible PVC; type: in vivo
[4] = approximately 0.2 grams of denatonium benzoate in 100 grams of clear flexible PVC

CC[N+](CC)(CC(=O)Nc1c(C)cccc1C)Cc1ccccc1 [denatonium benzoate]
solubility in polyvinyl chloride (PVC) [1]: readily dissolves
solubility in polyvinyl chloride (PVC) ([1]; listed as Bitrex™): soluble in PVC
solubility in organic solvents ([2]; benzene and chloroform): readily soluble
solubility in ether ([2]; ether): nearly insoluble
skin irritation ([3]; at concentrations of 0.05%): does not irritate the skin
skin irritation ([3]; even in fairly high concentrations): non-irritating to the skin
deterrence of gnawing on the PVC (rats; [4]): does not deter rats from gnawing and eating the PVC
effect on rats which ingest the treated PVC (rats; [4]): pronounced soporific effect
deterrence of gnawing on the PVC (rats; approximately 2.5 grams of denatonium benzoate in 100 grams of clear flexible PVC, also when sample thoroughly washed): quite effective in discouraging rats from gnawing on the plastic

Source: patent US20040213743A1, “Sensorially active substances embedded in plastic” (priority 1996, published 2004)
